Assays:
[1] = system: patients with mild to moderate Alzheimer's disease; assay: clinical study, treatment emergent adverse events (TEAE); assay type: in vivo, human; conditions: for Patients with an TEAE / Patients with any treatment emergent serious adverse event / TEAE: Anxiety / TEAE: Cardiac disorders / TEAE: Depressive disorders / TEAE: Dermatitis / TEAE: Diarrhea / TEAE: Dyspepsia / TEAE: Gastrointestinal disorders / TEAE: Hiatus hernia / TEAE: Infections and infestations / TEAE: Muscle spasm / TEAE: Musculoskeletal and connective tissue disorders / TEAE: Other (Falls) / TEAE: Psychiatric disorders / TEAE: Rashes / TEAE: Skin and subcutaneous tissue disorders / TEAE: Sleep disorders and Disturbance / TEAE: Vascular disorders: with donepezil
Experimental: (§1) A randomized, double-blind, parallel-group, placebo-controlled clinical trial was performed to study the effect on cognitive performance, safety, and tolerability of 2-(cyclohexylmethyl)-N-{2-[(2S)-1-methylpyrrolidin-2-yl]ethyl}-1,2,3,4-tetrahydroisoquinoline-7-sulfonamide difumarate monohydrate as adjunct treatment to donepezil.
(§2) More specifically, patients with mild to moderate Alzheimer's disease on stable donepezil therapy were randomized to receive doses of 0.5 mg, 2 mg, or 5 mg/day of 2-(cyclohexylmethyl)-N-{2-[(2S)-1-methylpyrrolidin-2-yl]ethyl}-1,2,3,4-tetrahydroisoquinoline-7-sulfonamide difumarate monohydrate or placebo for 24 weeks, with a 10 week follow-up period.
(§3) Patients were randomized to receive 0.5 mg, 2 mg, or 5 mg of 2-(cyclohexylmethyl)-N-{2-[(2S)-1-methylpyrrolidin-2-yl]ethyl}-1,2,3,4-tetrahydroisoquinoline-7-sulfonamide difumarate monohydrate (measured in base form), or matching placebo once a day, with donepezil (5 mg or 10 mg in the form the patient took prior to enrollment), for 24 weeks, with or without food.

[2] = system: patients with mild to moderate Alzheimer's disease; assay: clinical study, responder analysis on combined criterion (ADAS-Cog, ADCS-ADL, CGIC); assay type: in vivo, human; conditions: week 24
From the text: FIG. 7 illustrates the rate of “responders” at week 24 for the four dose group according to a combined criterion on the ADAS-Cog (2 points improvement vs baseline), ADCS-ADL (no worsening) and CGIC (no worsening) during the clinical study described in Example 2, in the mITT population.
“CGIC” as used herein, refers to the Clinical Global impression of Change assessed (at week 12 and week 24 during the clinical study described in Example 2) by the investigator according to 3 modalities: “Improvement” (includes marked, moderate and minimal improvement), “No change” and “Worsening” (includes minimal, moderate and marked worsening).
FIG. 7 illustrates the responder analysis at week 24 based on a combined criterion defined as followed: […]
change from baseline to Week 24 lower than or equal to −2 points in the ADAS-Cog total score, and
change from baseline to Week 24 greater than or equal to 0 point in the ADCS-ADL global score, and
no worsening according to the CGIC assessment at Week 24.

[3] = system: patients with mild to moderate Alzheimer's disease; assay: clinical study, AES-I apathy score; assay type: in vivo, human; conditions: 5 mg/day with donepezil
Experimental: “AES-I” as used herein, refers to the Apathy Evaluation Scale for Informant which assess global measure of apathy. Scores range from 18 (best possible) to 72 (worst possible).
as §1, §2, §3
Change from baseline to Week 12 and 24 in the Apathy Evaluation Scale for Informant (AES-I) score; and […]

[4] = system: CD1 male mice; assay: object recognition test in normal mice; assay type: in vivo
From the text: FIG. 1 illustrates the results of the effect of a co-treatment with 2-(cyclohexyl methyl)-N-{2-[(2S)-1-methyl pyrrolidin-2-yl]ethyl}-1,2,3,4-tetrahydroisoquinoline-7-sulfonamide and donepezil on recognition memory in normal mice at various delays using the object recognition task.
The results of this study are depicted in FIG. 1.

## CN1CCC[C@H]1CCNS(=O)(=O)c1ccc2c(c1)CN(CC1CCCCC1)CC2 [API, 2-(cyclohexylmethyl)-N-{2-[(2S)-1-methylpyrrolidin-2-yl]ethyl}-1,2,3,4-tetrahydroisoquinoline-7-sulfonamide difumarate monohydrate]
[1]; 0.5 mg (N = 72)
  Patients with an TEAE: 53 (73.6%)
  Patients with any treatment emergent serious adverse event: 10 (13.9%)
  TEAE: Anxiety: 3 (4.2%)
  TEAE: Cardiac disorders: 5 (6.9%)
  TEAE: Depressive disorders: 1 (1.4%)
  TEAE: Dermatitis: 1 (1.4%)
  TEAE: Diarrhea: 7 (9.7%)
  TEAE: Dyspepsia: 1 (1.4%)
  TEAE: Gastrointestinal disorders: 11 (15.3%)
  TEAE: Hiatus hernia: 0%
  TEAE: Infections and infestations: 20 (27.8%)
  TEAE: Muscle spasm: 1 (1.4%)
  TEAE: Musculoskeletal and connective tissue disorders: 5 (6.9%)
  TEAE: Other (Falls): 9 (12.5%)
  TEAE: Psychiatric disorders: 21 (29.2%)
  TEAE: Rashes: 1 (1.4%)
  TEAE: Skin and subcutaneous tissue disorders: 7 (9.7%)
  TEAE: Sleep disorders and Disturbance: 12 (16.7%)
  TEAE: Vascular disorders: 2 (2.8%)
[1]; 2 mg (N = 72)
  Patients with an TEAE: 54 (76.1%)
  Patients with any treatment emergent serious adverse event: 10 (14.1%)
  TEAE: Anxiety: 4 (5.6%)
  TEAE: Cardiac disorders: 3 (4.2%)
  TEAE: Depressive disorders: 2 (2.8%)
  TEAE: Dermatitis: 3 (4.2%)
  TEAE: Diarrhea: 7 (9.9%)
  TEAE: Dyspepsia: 1 (1.4%)
  TEAE: Gastrointestinal disorders: 18 (25.4%)
  TEAE: Hiatus hernia: 0%
  TEAE: Infections and infestations: 11 (15.5%)
  TEAE: Muscle spasm: 2 (2.8%)
  TEAE: Musculoskeletal and connective tissue disorders: 12 (16.9%)
  TEAE: Other (Falls): 7 (9.9%)
  TEAE: Psychiatric disorders: 18 (25.4%)
  TEAE: Rashes: 4 (5.6%)
  TEAE: Skin and subcutaneous tissue disorders: 15 (21.1%)
  TEAE: Sleep disorders and Disturbance: 11 (15.5%)
  TEAE: Vascular disorders: 3 (4.3%)
[1]; 5 mg (N = 69)
  Patients with an TEAE: 59 (85.5%)
  Patients with any treatment emergent serious adverse event: 8 (11.6%)
  TEAE: Anxiety: 4 (5.8%)
  TEAE: Cardiac disorders: 5 (7.2%)
  TEAE: Depressive disorders: 5 (7.2%)
  TEAE: Dermatitis: 3 (4.3%)
  TEAE: Diarrhea: 4 (5.8%)
  TEAE: Dyspepsia: 3 (4.3%)
  TEAE: Gastrointestinal disorders: 17 (24.6%)
  TEAE: Hiatus hernia: 3 (4.3%)
  TEAE: Infections and infestations: 16 (23.2%)
  TEAE: Muscle spasm: 7 (10.6%)
  TEAE: Musculoskeletal and connective tissue disorders: 16 (23.2%)
  TEAE: Other (Falls): 7 (10.1%)
  TEAE: Psychiatric disorders: 27 (39.1%)
  TEAE: Rashes: 1 (1.4%)
  TEAE: Skin and subcutaneous tissue disorders: 5 (7.2%)
  TEAE: Sleep disorders and Disturbance: 21 (30.4%)
  TEAE: Vascular disorders: 3 (4.3%)
[1]; 5 mg group
  sleep disorders and disturbances, incidence among groups: highest incidence
[1]; 0.5, 2, 5 mg/day with donepezil, 24 weeks
  safety and tolerability: safe and well tolerated
[1]; all treated groups
  vascular disorders, incidence over placebo: low incidence
[2]; 5 mg group with donepezil
  rate of responder on a combined criterion (ADAS-Cog, ADCS-ADL, CGIC): 16.7%
[2]; 5 mg/day with donepezil
  rate of responders over placebo: higher rate
[3]; after 12 weeks, mITT
  AES-I change from baseline vs placebo: significant difference
[3]; at 24 weeks and follow-up
  AES-I difference vs placebo: no longer significant
[4]; 3 mg/kg co-administered with 3 mg/kg donepezil hydrochloride, 48 hours post administration
  procognitive effect of co-administration in object recognition test: significant procognitive effect
[4]; 3 mg/kg oral, individually, 24 hours after administration
  memory in object recognition test: enhanced the memory
[4]; 3 mg/kg oral, individually, after 48 hours
  procognitive effect in object recognition test: lack of procognitive effect

— US20160256449A1, “H3 RECEPTOR ANTAGONIST FOR USE IN THE TREATMENT OF ALZHEIMER'S DISEASE” (SANOFI, priority 2013, published 2016)
